Reference: patent US8962681B2, “Use of aminoacetonitrile derivatives against endoparasites” (Zoetis LLC, priority 2011, dated 2015)

What was measured:
[1] = tested on: L4 stage larvae of D. immitis; assay: L4 stage larvae motility/kill assay; format: cell-based, Dirofilaria immitis
[2] = tested on: Dirofilaria immitis microfilariae; assay: in vitro microwell motility assay against heartworm microfilariae; format: cell-based; conditions: microfilaria from canine blood, 384 well plate, 72 hours incubation at 37° C. and 5% CO2, LemnaTec Scanalyzer

Row | SMILES | active against L4 D. immitis at 10 μM [1] | ED50 (dose at which the overall microfilaria motility was reduced by 50% compared to that of an untreated control) [2]
1 | CO[C@H]1C[C@H](O[C@@H]2/C(C)=C/C[C@@H]3C[C@@H](C[C@]4(CC[C@H](C)[C@@H](C5CCCCC5)O4)O3)OC(=O)[C@@H]3C=C(C)/C(=N/O)[C@H]4OC/C(=C\C=C\[C@@H]2C)[C@]43O)O[C@@H](C)[C@@H]1O [Selamectin, reference compound] | active | –
2 | Cc1ccc(Oc2ccc(C#N)cc2OCC(C)(C#N)NC(=O)c2ccc(S(F)(F)(F)(F)F)cc2)c(C)c1 (centres unmarked) [test compound 72, N-{1-cyano-2-[5-cyano-2-(2,4-dimethylphenoxy)phenoxy]-1-methylethyl}-4-(pentafluorothio)benzamide] | – | 1 µM
3 | COc1ccc(Oc2ccc(C#N)cc2OCC(C)(C#N)NC(=O)c2ccc(S(F)(F)(F)(F)F)cc2)c(Cl)c1 (centres unmarked) [test compound 75, N-{2-[2-(2-chloro-4-methoxyphenoxy)-5-cyanophenoxy]-1-cyano-1-methylethyl}-4-(pentafluorothio)benzamide] | – | 3.3 µM
4 | COc1ccc(Oc2ccc(C#N)cc2OCC(C)(C#N)NC(=O)c2ccc(S(F)(F)(F)(F)F)cc2)c(F)c1F (centres unmarked) [test compound 76, N-{1-cyano-2-[5-cyano-2-(2,3-difluoro-4-methoxyphenoxy)phenoxy]-1-methylethyl}-4-(pentafluorothio)benzamide] | – | 10 µM
5 | COc1cc(F)c(Oc2ccc(C#N)cc2OCC(C)(C#N)NC(=O)c2ccc(S(F)(F)(F)(F)F)cc2)c(F)c1 (centres unmarked) [test compound 77, N-{1-cyano-2-[5-cyano-2-(2,6-difluoro-4-methoxyphenoxy)phenoxy]-1-methylethyl}-4-(pentafluorothio)benzamide] | – | 10 µM
6 | COc1c(F)cc(Oc2ccc(C#N)cc2OCC(C)(C#N)NC(=O)c2ccc(S(F)(F)(F)(F)F)cc2)cc1F (centres unmarked) [test compound 78, N-{1-cyano-2-[5-cyano-2-(3,5-difluoro-4-methoxyphenoxy)phenoxy]-1-methylethyl}-4-(pentafluorothio)benzamide] | – | 1 µM
7 | COc1cc(O)ccc1Oc1ccc(C#N)cc1OCC(C)(C#N)NC(=O)c1ccc(S(F)(F)(F)(F)F)cc1 (centres unmarked) [test compound 79, N-{1-cyano-2-[5-cyano-2-(4-hydroxy-2-methoxyphenoxy)phenoxy]-1-methylethyl}-4-(pentafluorothio)benzamide] | – | 10 µM
8 | CC(C#N)(COc1ccc(-c2cccnc2)cc1C(F)(F)F)NC(=O)c1ccc(S(F)(F)(F)(F)F)cc1 (centres unmarked) [test compound 82, N-{1-cyano-1-methyl-2-[4-pyridin-3-yl-2-(trifluoromethyl)phenoxy]ethyl}-4-(pentafluorothio)benzamide] | – | 10 µM
9 | CC(C#N)(NC(=O)c1ccc(S(F)(F)(F)(F)F)cc1)C1Cc2cc(C#N)cc(C(F)(F)F)c2O1 (centres unmarked) [test compound 83, N-{1-cyano-1-[5-cyano-7-(trifluoromethyl)-2,3-dihydro-1-benzofuran-2-yl]ethyl}-4-(pentafluorothio)benzamide] | – | 10 µM
10 | CC(C#N)(COCc1ccc(C(F)(F)F)cc1)NC(=O)c1ccc(S(F)(F)(F)(F)F)cc1 (centres unmarked) [test compound 84, N-(1-cyano-1-methyl-2-{[4-(trifluoromethyl)benzyl]oxy}ethyl)-4-(pentafluorothio)benzamide] | – | 3.3 µM
11 | CC(C#N)(Cc1ccc(C#N)cc1Cl)NC(=O)c1ccc(S(F)(F)(F)(F)F)cc1 (centres unmarked) [test compound 90, N-[2-(2-chloro-4-cyanophenyl)-1-cyano-1-methylethyl]-4-(pentafluorothio)benzamide] | – | 33 µM
